Settings: human, in vivo
Excerpt: Treatment of endocrine disorders, such as Cushing's Syndrome, can be particularly difficult to manage due to less predictable patient response to administration of a synthetic steroid, such as mifepristone. Mifepristone is a synthetic steroid that binds progesterone and glucocorticoid receptors and has been employed to treat a number of conditions including meningioma, uterine fibroids, hyperadrenocorticism, metabolic, oncologic, opthamalogic, central nervous system disorders and certain psychiatric illnesses. Examples of such metabolic disorders include diabetes, obesity, antipsychotic induced weight gain, hypertension, and osteoporosis; examples of oncologic illness include various types of cancers, including ovarian cancer and prostate cancer; examples of central nervous system disorders include Alzheimer's Disease, neurodegenerative diseases, post traumatic stress disorder, and alcohol dependence; and examples of opthamalogical conditions include glaucoma and central serous retinopathy. […] For a particular dose of mifepristone, the plasma drug concentration can differ by as much as 800% from one patient to the next. The varied plasma drug concentration can result in some patients not receiving an efficacious dose of mifepristone. For these patients in particular, it is necessary to improve the pharmacokinetics of mifepristone upon administration. […]

- difference in plasma drug concentration from one patient to the next: ≤ 800%
SMILES: CC#C[C@]1(O)CC[C@H]2[C@@H]3CCC4=CC(=O)CCC4=C3[C@@H](c3ccc(N(C)C)cc3)C[C@@]21C [mifepristone]

— patent US11610666B2, “Systems and methods of managing treatment of a chronic condition by symptom tracking” (CORCEPT THERAPEUTICS, INC., priority 2014, dated 2023)
